This experiment deals with T1, RORc (Homo sapiens, UniProt P51449).
T1 sequence (P51449 269-508 limits assumed): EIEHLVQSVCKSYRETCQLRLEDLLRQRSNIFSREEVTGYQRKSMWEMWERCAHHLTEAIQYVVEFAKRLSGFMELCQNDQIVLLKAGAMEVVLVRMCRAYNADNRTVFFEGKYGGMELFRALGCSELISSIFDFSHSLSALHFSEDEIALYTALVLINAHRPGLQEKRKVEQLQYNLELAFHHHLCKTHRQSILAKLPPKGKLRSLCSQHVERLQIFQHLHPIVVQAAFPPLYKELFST
Description: In vitro RORc ligand binding assay (25-[3H]hydroxycholesterol displacement). Conditions: IC50, IC50 values for RORc; unit inferred.

SMILES strings stand for the structures. pIC50: −log10 of the molar value.

A word on the pIC50: it is the IC50 on a negative log10 scale, so that one unit is a factor of ten. Compound `C[C@H]1CC[C@H](c2ccccc2)S(=O)(=O)N1Cc1ccc(C2(C(C)(C)O)CCOCC2)cc1F` [Compound 76, 2-[4-[3-fluoro-4-[[(3S,6R)-3-methyl-1,1-dioxo-6-phenyl-thiazinan-2-yl]methyl]phenyl]tetrahydropyran-4-yl]propan-2-ol] showed a pIC50 of 7.49.
With `C[C@H]1CC[C@H](c2ccccc2)S(=O)(=O)N1Cc1ccc(C2(CC#N)CCOCC2)cc1F` [Compound 77, 2-[4-[3-fluoro-4-[[(3S,6R)-3-methyl-1,1-dioxo-6-phenyl-thiazinan-2-yl]methyl]phenyl]tetrahydropyran-4-yl]acetonitrile], the negative-log IC50 (pIC50) was 7.51.
The result for `C[C@H]1CC[C@H](c2ccccc2)S(=O)(=O)N1Cc1ccc(C2(CCO)CCOCC2)cc1F` [Compound 78, 2-[4-[3-fluoro-4-[[(3S,6R)-3-methyl-1,1-dioxo-6-phenyl-thiazinan-2-yl]methyl]phenyl]tetrahydropyran-4-yl]ethanol] reads 7.86.
The result for `CCOC(=O)CCC1(c2ccc(CN3[C@@H](C)CC[C@H](c4ccccc4)S3(=O)=O)c(F)c2)CCOCC1` [Compound 79, ethyl 3-[4-[3-fluoro-4-[[(3S,6R)-3-methyl-1,1-dioxo-6-phenyl-thiazinan-2-yl]methyl]phenyl]tetrahydropyran-4-yl]propanoate] reads 8.31; that for `CC(=O)N(C)CC1(c2ccc(CN3[C@@H](C)CC[C@H](c4ccccc4)S3(=O)=O)c(F)c2)CCOCC1` [Compound 80, N-[[4-[3-fluoro-4-[[(3S,6R)-3-methyl-1,1-dioxo-6-phenyl-thiazinan-2-yl]methyl]phenyl]tetrahydropyran-4-yl]methyl]-N-methyl-acetamide], 6.98.
Regarding `C[C@H]1CC[C@H](c2ccccc2)S(=O)(=O)N1Cc1ccc(C2(CCCO)CCOCC2)cc1F` [Compound 81, 3-[4-[3-fluoro-4-[[(3S,6R)-3-methyl-1,1-dioxo-6-phenyl-thiazinan-2-yl]methyl]phenyl]tetrahydropyran-4-yl]propan-1-ol], the pIC50 was 8.21.
The result for `COCCOCC1(c2ccc(CN3[C@@H](C)CC[C@H](c4ccccc4)S3(=O)=O)c(F)c2)CCOCC1` [Compound 82, (3S,6R)-2-[[2-fluoro-4-[4-(2-methoxyethoxymethyl)tetrahydropyran-4-yl]phenyl]methyl]-3-methyl-6-phenyl-thiazinane 1,1-dioxide] reads 7.15; that for `C[C@H]1CC[C@H](c2ccccc2)S(=O)(=O)N1Cc1ccc(C2(COCCO)CCOCC2)cc1F` [Compound 83, 2-[[4-[3-fluoro-4-[[(3S,6R)-3-methyl-1,1-dioxo-6-phenyl-thiazinan-2-yl]methyl]phenyl]tetrahydropyran-4-yl]methoxy]ethanol], 7.34; that for `C[C@H]1CC[C@H](c2ccccc2)S(=O)(=O)N1Cc1ccc(C2(CCC(=O)O)CCOCC2)cc1F` [Compound 84, 3-[4-[3-fluoro-4-[[(3S,6R)-3-methyl-1,1-dioxo-6-phenyl-thiazinan-2-yl]methyl]phenyl]tetrahydropyran-4-yl]propanoic acid], 7.31.
Under `C[C@H]1CC[C@H](c2ccccc2)S(=O)(=O)N1Cc1ccc(C2(CCC(=O)N(C)C)CCOCC2)cc1F` [Compound 85, 3-[4-[3-fluoro-4-[[(3S,6R)-3-methyl-1,1-dioxo-6-phenyl-thiazinan-2-yl]methyl]phenyl]tetrahydropyran-4-yl]-N,N-dimethyl-propanamide] stands 7.98.
The result for `C[C@H]1CC[C@H](c2ccccc2)S(=O)(=O)N1Cc1ccc(C2(CCC#N)CCOCC2)cc1F` [Compound 86, 3-[4-[3-fluoro-4-[[(3S,6R)-3-methyl-1,1-dioxo-6-phenyl-thiazinan-2-yl]methyl]phenyl]tetrahydropyran-4-yl]propanenitrile] reads 8.11; that for `C[C@H]1CC[C@H](c2ccccc2)S(=O)(=O)N1Cc1ccc(C2(CCC(N)=O)CCOCC2)cc1F` [Compound 87, 3-[4-[3-fluoro-4-[[(3S,6R)-3-methyl-1,1-dioxo-6-phenyl-thiazinan-2-yl]methyl]phenyl]tetrahydropyran-4-yl]propanamide], 8.06; that for `CNC(=O)CCC1(c2ccc(CN3[C@@H](C)CC[C@H](c4ccccc4)S3(=O)=O)c(F)c2)CCOCC1` [Compound 88, 3-[4-[3-fluoro-4-[[(3S,6R)-3-methyl-1,1-dioxo-6-phenyl-thiazinan-2-yl]methyl]phenyl]tetrahydropyran-4-yl]-N-methyl-propanamide], 7.83.
With `C[C@H]1CC[C@H](c2ccccc2)S(=O)(=O)N1Cc1ccc(C2(CC(N)=O)CCOCC2)cc1F` [Compound 89, 2-[4-[3-fluoro-4-[[(3S,6R)-3-methyl-1,1-dioxo-6-phenyl-thiazinan-2-yl]methyl]phenyl]tetrahydropyran-4-yl]acetamide], the pIC50 is 6.42.
Turning to `COCC1(c2ccc(CN3[C@@H](C)CC[C@H](c4ccccc4)S3(=O)=O)c(F)c2)CCOCC1` [Compound 90, (3S,6R)-2-[[2-fluoro-4-[4-(methoxymethyl)tetrahydropyran-4-yl]phenyl]methyl]-3-methyl-6-phenyl-thiazinane 1,1-dioxide], the negative logarithm of the IC50 (pIC50) was 7.17.
`COCCCOCC1(c2ccc(CN3[C@@H](C)CC[C@H](c4ccccc4)S3(=O)=O)c(F)c2)CCOCC1` [Compound 91, (3S,6R)-2-[[2-fluoro-4-[4-(3-methoxypropoxymethyl)tetrahydro-pyran-4-yl]phenyl]methyl]-3-methyl-6-phenyl-thiazinane 1,1-dioxide] gave a pIC50 of 6.99.
The result for `C[C@H]1CC[C@H](c2ccccc2)S(=O)(=O)N1Cc1ccc(C2(COCCCO)CCOCC2)cc1F` [Compound 92, 3-[[4-[3-fluoro-4[[(3S,6R)-3-methyl-1,1-dioxo-6-phenyl-thiazinan-2-yl]methyl]phenyl]tetrahydropyran-4-yl]methoxy]propan-1-ol] reads 7.12.
The result for `C[C@H]1CC[C@H](c2ccccc2)S(=O)(=O)N1Cc1ccc(C2(/C(N)=N\O)CCOCC2)cc1F` [Compound 93, 4-[3-fluoro-4-[[(3S,6R)-3-methyl-1,1-dioxo-6-phenyl-thiazinan-2-yl]methyl]phenyl]-N′-hydroxy-tetrahydropyran-4-carboxamidine] reads 7.42.
As for `CC(=O)NC1(c2ccc(CN3[C@@H](C)CC[C@H](c4ccccc4)S3(=O)=O)c(F)c2)CCOCC1` [Compound 94, N-[4-[3-fluoro-4-[[(3S,6R)-3-methyl-1,1-dioxo-6-phenyl-thiazinan-2-yl]methyl]phenyl]tetrahydropyran-4-yl]acetamide], the pIC50 is 7.03.
`C[C@H]1CC[C@H](c2ccccc2)S(=O)(=O)N1Cc1ccc(C2(NC(=O)CO)CCOCC2)cc1F` [Compound 95, N-[4-[3-fluoro-4-[[(3S,6R)-3-methyl-1,1-dioxo-6-phenyl-thiazinan-2-yl]methyl]phenyl]tetrahydropyran-4-yl]-2-hydroxy-acetamide] gave a pIC50 of 6.91.
`C[C@H]1CC[C@H](c2ccccc2)S(=O)(=O)N1Cc1cc(F)c(C2(C(=O)O)CCOCC2)cc1F` [Compound 96, 4-[2,5-difluoro-4-[[(3S,6R)-3-methyl-1,1-dioxo-6-phenyl-thiazinan-2-yl]methyl]phenyl]tetrahydropyran-4-carboxylic acid]: the negative logarithm of the IC50 (pIC50) is 6.67.
For `C[C@H]1CC[C@H](c2ccccc2)S(=O)(=O)N1Cc1ccc(C2([C@@H](O)CO)CCOCC2)cc1F` [Compound 98, (1R)-1-[4-[3-fluoro-4-[[(3S,6R)-3-methyl-1,1-dioxo-6-phenyl-thiazinan-2-yl]methyl]phenyl]tetrahydropyran-4-yl]ethane-1,2-diol], the negative-log IC50 (pIC50) is 7.20.
For the compound `C[C@H]1CC[C@H](c2ccccc2)S(=O)(=O)N1Cc1ccc(C2(OCCO)CCOCC2)cc1F` [Compound 99, 2-[4-[3-fluoro-4-[[(3S,6R)-3-methyl-1,1-dioxo-6-phenyl-thiazinan-2-yl]methyl]phenyl]tetrahydropyran-4-yl]oxyethanol], the negative-log IC50 (pIC50) was 7.18.
The result for `C[C@H]1CC[C@H](c2ccccc2)S(=O)(=O)N1Cc1cc(F)c(C2(C(=O)NCC#N)CCOCC2)cc1F` [Compound 100, N-(cyanomethyl)-4[2,5-difluoro-4-[[(3S,6R)-3-methyl-1,1-dioxo-6-phenyl-thiazinan-2-yl]methyl]phenyl]tetrahydropyran-4-carboxamide] reads 7.51; that for `C[C@H]1CC[C@H](c2ccccc2)S(=O)(=O)N1Cc1cc(F)c(C2(CO)CCOCC2)cc1F` [Compound 101, [4-[2,5-difluoro-4-[[(3S,6R)-3-methyl-1,1-dioxo-6-phenyl-thiazinan-2-yl]methyl]phenyl]tetrahydropyran-4-yl]methanol], 8.05.
Under `C[C@H]1CC[C@H](c2ccccc2)S(=O)(=O)N1Cc1cc(F)c(C2(C(N)=O)CCOCC2)cc1F` [Compound 102, 4-[2,5-difluoro-4-[[(3S,6R)-3-methyl-1,1-dioxo-6-phenyl-thiazinan-2-yl]methyl]phenyl]tetrahydropyran-4-carboxamide] stands 7.42; under `C[C@H]1CC[C@H](c2ccccc2)S(=O)(=O)N1Cc1ccc(C2([C@H](O)CO)CCOCC2)cc1F` [Compound 103, (1S)-1-[4-[3-fluoro-4-[[(3S,6R)-3-methyl-1,1-dioxo-6-phenyl-thiazinan-2-yl]methyl]phenyl]tetrahydropyran-4-yl]ethane-1,2-diol], 7.16.
The result for `CCOC(=O)COCC1(c2ccc(CN3[C@@H](C)CC[C@H](c4ccccc4)S3(=O)=O)c(F)c2)CCOCC1` [Compound 104, ethyl 2-[[4-[3-fluoro-4-[[(3S,6R)-3-methyl-1,1-dioxo-6-phenyl-thiazinan-2-yl]methyl]phenyl]tetrahydropyran-4-yl]methoxy]acetate] reads 7.62.

Source of the values: patent US10131644B2, “Aryl sultam derivatives as RORc modulators” (Genentech, Inc., priority 2014, dated 2018).
